Values of other authors, collected in patent publication US7468434B2, “Diazene-bridge crown ether lithium compounds and methods for their use” (The University of Hong Kong, priority 2004, dated 2008).

Tested on: retinal ganglion cells
Conditions: ocular hypertensive model

Q: Which “prevention of degeneration of RGC” value does the source give for lithium chloride here?
A: The value was “could prevent degeneration of RGC”.
